# Target: T1, EGFR L858R-T790M (Homo sapiens, UniProt P00533, L858R/T790M)
# T1 construct: NCI-H1975 (harboring EGFR heterozygous L858R-T790M mutations); host or cells: NCI-H1975
# Assay: EGFR degradation, Total EGFR (L858R-specific) HTRF, NCI-H1975
# Type: cell-based
# Conditions: Table 9A; NCI-H1975 cells, 6 hours, Total EGFR HTRF; read-out: H1975 EGFR DC50
# Method in brief: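 Cells in RPMI 1640 + 10% FBS treated 6 h at 37°C with compound, 11-point half-log titration from 10 μM top, in duplicate. pY1068 and total EGFR read by HTRF (pan-EGFR antibody for wild-type A431; L858R-specific for mutants); IC50 for phospho inhibition, DC50 for 50% degradation.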
# T1 sequence (P00533 25-1210 T790M/L858R): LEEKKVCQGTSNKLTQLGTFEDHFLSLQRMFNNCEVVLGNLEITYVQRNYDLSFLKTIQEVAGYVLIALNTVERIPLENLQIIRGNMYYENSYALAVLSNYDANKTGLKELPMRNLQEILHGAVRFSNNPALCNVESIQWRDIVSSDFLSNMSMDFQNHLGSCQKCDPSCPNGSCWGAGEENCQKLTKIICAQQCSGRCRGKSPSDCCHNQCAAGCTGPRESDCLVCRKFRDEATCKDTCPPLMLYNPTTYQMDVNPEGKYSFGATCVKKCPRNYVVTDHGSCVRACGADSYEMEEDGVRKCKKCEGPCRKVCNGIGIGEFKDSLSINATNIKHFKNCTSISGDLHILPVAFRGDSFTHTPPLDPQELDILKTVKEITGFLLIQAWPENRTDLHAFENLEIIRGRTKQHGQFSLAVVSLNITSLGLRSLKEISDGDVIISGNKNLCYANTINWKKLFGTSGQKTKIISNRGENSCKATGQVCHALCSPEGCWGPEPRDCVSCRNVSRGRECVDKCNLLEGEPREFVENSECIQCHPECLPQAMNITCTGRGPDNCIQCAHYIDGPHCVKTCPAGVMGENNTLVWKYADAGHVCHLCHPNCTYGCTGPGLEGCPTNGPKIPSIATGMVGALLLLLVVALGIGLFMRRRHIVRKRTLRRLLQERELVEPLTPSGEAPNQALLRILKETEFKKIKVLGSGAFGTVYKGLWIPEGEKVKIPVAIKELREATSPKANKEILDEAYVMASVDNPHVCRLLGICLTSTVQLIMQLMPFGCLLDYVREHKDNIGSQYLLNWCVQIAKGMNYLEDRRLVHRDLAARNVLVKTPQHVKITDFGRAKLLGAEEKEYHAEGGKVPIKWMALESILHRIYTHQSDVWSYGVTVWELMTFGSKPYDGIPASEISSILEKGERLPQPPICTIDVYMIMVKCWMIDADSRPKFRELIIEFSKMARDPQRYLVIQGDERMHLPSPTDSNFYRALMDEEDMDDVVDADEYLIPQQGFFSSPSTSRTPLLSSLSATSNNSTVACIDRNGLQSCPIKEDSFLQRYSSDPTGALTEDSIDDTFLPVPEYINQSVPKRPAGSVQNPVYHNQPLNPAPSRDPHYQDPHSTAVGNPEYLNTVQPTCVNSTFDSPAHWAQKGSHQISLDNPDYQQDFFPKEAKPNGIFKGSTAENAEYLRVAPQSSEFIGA
row,DC50,SMILES
1,< 50 nM,"O=C1CC[C@@H](Nc2ccc(C3CCN(CC(=O)N4CCC(c5ccc(-c6cc(F)c7c(c6)C(=O)N(C(C(=O)Nc6nccs6)c6ncn8c6CCC8)C7)cc5)CC4)CC3)cc2)C(=O)N1 (stereo partly drawn) [Compound 23, 2-(6,7-dihydro-5H-pyrrolo[1,2-c]imidazol-1-yl)-2-(6-(4-(1-(2-(4-(4-(((R)-2,6-dioxopiperidin-3-yl)amino)phenyl)piperidin-1-yl)acetyl)piperidin-4-yl)phenyl)-4-fluoro-1-oxoisoindolin-2-yl)-N-(thiazol-2-yl)acetamide]"

# Same assay, conditions: Table 9B; NCI-H1975 cells, 6 hours, Total EGFR HTRF; read-out: H1975 EGFR DC50
row,DC50,SMILES
1,< 50 nM,"Cn1nc(N2CCC(=O)NC2=O)c2cc(F)c(C3CCN(CC(=O)N4CC5(C4)CN(c4ccc(-c6cc(F)c7c(c6)C(=O)N(C(C(=O)Nc6nccs6)c6ncn8c6CCC8)C7)cc4)C5)CC3(F)F)cc21 (single isomer, unassigned; isomer 1) [Compound 129, 2-(6,7-dihydro-5H-pyrrolo[1,2-c]imidazol-1-yl)-2-[6-[4-[2-[2-[4-[3-(2,4-dioxohexahydropyrimidin-1-yl)-5-fluoro-1-methyl-indazol-6-yl]-3,3-difluoro-1-piperidyl]acetyl]-2,6-diazaspiro[3.3]heptan-6-yl]phenyl]-4-fluoro-1-oxo-isoindolin-2-yl]-N-thiazol-2-yl-acetamide, isomer 1]"
2,< 50 nM,"O=C1CC[C@H](Nc2ccc(N3CCC(O)(CC(=O)N4CCC(n5cc(-c6cc(F)c7c(c6)C(=O)N(C(C(=O)Nc6nccs6)c6ncn8c6CCC8)C7)cn5)CC4)CC3)c(F)c2)C(=O)N1 (stereo partly drawn) [Compound 142, 2-(6,7-dihydro-5H-pyrrolo[1,2-c]imidazol-1-yl)-2-[6-[1-[1-[2-[1-[4-[[(3S)-2,6-dioxo-3-piperidyl]amino]-2-fluoro-phenyl]-4-hydroxy-4-piperidyl]acetyl]-4-piperidyl]pyrazol-4-yl]-4-fluoro-1-oxo-isoindolin-2-yl]-N-thiazol-2-yl-acetamide]"
3,< 50 nM,"O=C1CCC(Nc2ccc(N3CCC(O)(CC(=O)N4CC5(C4)CN(c4ccc(-c6cc(F)c7c(c6)C(=O)N(C(C(=O)Nc6nccs6)c6ncn8c6CCC8)C7)cc4)C5)CC3)c(F)c2)C(=O)N1 (stereo not drawn) [Compound 89, 2-(6,7-dihydro-5H-pyrrolo[1,2-c]imidazol-1-yl)-2-(6-(4-(6-(2-(1-(4-((2,6-dioxopiperidin-3-yl)amino)-2-fluorophenyl)-4-hydroxypiperidin-4-yl)acetyl)-2,6-diazaspiro[3.3]heptan-2-yl)phenyl)-4-fluoro-1-oxoisoindolin-2-yl)-N-(thiazol-2-yl)acetamide]"
4,< 50 nM,"O=C1CC[C@H](Nc2ccc(N3CCC(O)(CC(=O)N4CC5(C4)CN(c4ccc(-c6ccc7cn(C(C(=O)Nc8nccs8)c8ncn9c8CCC9)nc7c6F)cc4)C5)CC3)c(F)c2)C(=O)N1 (stereo partly drawn) [Compound 78, 2-(6,7-dihydro-5H-pyrrolo[1,2-c]imidazol-1-yl)-2-(6-(4-(6-(2-(1-(4-(((S)-2,6-dioxopiperidin-3-yl)amino)-2-fluorophenyl)-4-hydroxypiperidin-4-yl)acetyl)-2,6-diazaspiro[3.3]heptan-2-yl)phenyl)-7-fluoro-2H-indazol-2-yl)-N-(thiazol-2-yl)acetamide]"
5,< 50 nM,"O=C1CCC(Nc2ccc(N3CCC(O)(CC(=O)N4CC5(C4)CN(c4ccc(-c6cc(F)c7c(c6)C(=O)N(C(C(=O)Nc6nccs6)c6ncn8c6CCC8)C7)cc4)C5)CC3)c(Cl)c2)C(=O)N1 (stereo not drawn) [Compound 117, 2-[6-[4-[2-[2-[1-[2-chloro-4-[(2,6-dioxo-3-piperidyl)amino]phenyl]-4-hydroxy-4-piperidyl]acetyl]-2,6-diazaspiro[3.3]heptan-6-yl]phenyl]-4-fluoro-1-oxo-isoindolin-2-yl]-2-(6,7-dihydro-5H-pyrrolo[1,2-c]imidazol-1-yl)-N-thiazol-2-yl-acetamide]"
6,< 50 nM,"O=C1CC[C@H](Nc2ccc(N3CCC(O)(CC(=O)N4CC5(C4)CN(c4ccc(-c6cc(F)c7cn(C(C(=O)Nc8nccs8)c8ncn9c8CCC9)nc7c6)cc4)C5)CC3)c(F)c2)C(=O)N1 (stereo partly drawn) [Compound 77, 2-(6,7-dihydro-5H-pyrrolo[1,2-c]imidazol-1-yl)-2-[6-[4-[2-[2-[1-[4-[[(3S)-2,6-dioxo-3-piperidyl]amino]-2-fluoro-phenyl]-4-hydroxy-4-piperidyl]acetyl]-2,6-diazaspiro[3.3]heptan-6-yl]phenyl]-4-fluoro-indazol-2-yl]-N-thiazol-2-yl-acetamide]"
7,< 50 nM,"O=C1CC[C@@H](Nc2ccc(N3CCC(O)(CC(=O)N4CC5(C4)CN(c4ccc(-c6cc(F)c7c(c6)C(=O)N(C(C(=O)Nc6nccs6)c6ncn8c6C[C@@H](F)C8)C7)cc4)C5)CC3)c(F)c2)C(=O)N1 (stereo partly drawn) [Compound 132, 2-[6-[4-[2-[2-[1-[4-[[(3R)-2,6-dioxo-3-piperidyl]amino]-2-fluoro-phenyl]-4-hydroxy-4-piperidyl]acetyl]-2,6-diazaspiro[3.3]heptan-6-yl]phenyl]-4-fluoro-1-oxo-isoindolin-2-yl]-2-[(6R)-6-fluoro-6,7-dihydro-5H-pyrrolo[1,2-c]imidazol-1-yl]-N-thiazol-2-yl-acetamide]"
8,> 150 nM,"Cn1nc(N2CCC(=O)NC2=O)c2ccc(C3CCN(CC(=O)N4C[C@H]5C[C@@H]4CN5c4ccc(-c5cc(F)c6c(c5)C(=O)N(C(C(=O)Nc5nccs5)c5ncn7c5CCC7)C6)cc4)CC3)cc21 (stereo partly drawn) [Compound 82, 2-(6,7-dihydro-5H-pyrrolo[1,2-c]imidazol-1-yl)-2-(6-(4-((1R,4R)-5-(2-(4-(3-(2,4-dioxotetrahydropyrimidin-1(2H)-yl)-1-methyl-1H-indazol-6-yl)piperidin-1-yl)acetyl)-2,5-diazabicyclo[2.2.1]heptan-2-yl)phenyl)-4-fluoro-1-oxoisoindolin-2-yl)-N-(thiazol-2-yl)acetamide]"
